# Experimental data from US20210186947A1, “TOMM6-INTERACTING EXTRACTS AND COMPOUNDS FOR USE IN THE TREATMENT AND PROPHYLAXIS OF NERVOUS SYSTEM DISEASES, ATHEROSCLEROSIS, HEPATITIS B INFECTION AND HUMAN PAPILLOMA VIRUS (HPV) INFECTION” (ETH ZURICH, priority 2018, published 2021).
# Positions count from the first letter of the chain named.
# What was measured:
# [1] = test system: hyperphosphorylated PHF-Tau; assay: Hippocampal hyperphosphorylated PHF-Tau in Tg2576 mice subjected to CUMS, binding assay with [125I]-labeled AT8 antibody; type: in vivo; conditions: 15 months-old Tg2576 mice, 3 months of CUMS, treated during CUMS; compounds 10 mg/kg/d
# [2] = test system: hippocampal neuronal cell bodies (NeuN); assay: Hippocampal neuronal loss in Tg2576 mice subjected to CUMS, binding assay with [125I]-labeled anti-NeuN antibody; type: in vivo; conditions: 15 months-old Tg2576 mice, 3 months of CUMS, treated during CUMS; compounds 10 mg/kg/d
# [3] = biological target: T1, Tomm6 (Mus musculus, UniProt Q9CQN3); assay: Immunoblot detection of hippocampal Tomm6 protein in treated Tg2576 mice; type: in vivo; conditions: Tg2576 AD mice subjected to the CUMS protocol, treated during CUMS (10 mg/kg/d)
# T1 construct: hippocampi were isolated from 5-10 aged Tg2576 mice, pulverized under liquid nitrogen and solubilized; from tissue; host or cells: hippocampus of Tg2576 mice
# T1 sequence (Q9CQN3 1-74): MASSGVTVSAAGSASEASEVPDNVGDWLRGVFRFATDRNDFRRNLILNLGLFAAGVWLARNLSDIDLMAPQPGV
# [4] = biological target: T2, TOMM6 (Homo sapiens, UniProt Q96B49); assay: Screening for TOMM6-inducing compounds in HEK cells, TOMM6 immunoblot; type: cell-based; set-up: endogenous in cells; host or cells: HEK cells; conditions: final concentration 20 microM, 60 h
# T2 sequence (Q96B49 1-74): T1 sequence (Q9CQN3 1-74) with G5T, T7P, S15N, A17T, S18P, V20I, F32Y
# Experimental: For immunoblot detection of (hippocampal or HEK cell) proteins, e.g. Tomm6/TOMM6 and Atp6v1a/ATP6V1A, (hippocampal) tissue was pulverized under liquid nitrogen, and HEK cell pellets were directly subjected to protein extraction. Proteins were extracted for 30 min at 4° C. with solubilization buffer (1% sodium deoxycholate, 0.1% SDS, 0.1% NP40, 5 mM EDTA, 50 mM Tris, pH 8.0) supplemented with protease/phosphatase inhibitors (Cat. No. P8349, and/or PPC1010, Sigma-Aldrich, St. Louis, Mo., USA). Particulate material was removed by centrifugation at 50 000×g for 20 min at 4° C. Solubilized proteins were concentrated and delipidated by precipitation with ice-cold acetone/methanol (12:2, final concentration 83%) for 90 min at 4° C. The pellet was dissolved in SDS-sample buffer supplemented with 2% SDS, 0.1 M DTT (or 5% mercaptoethanol), and 6 M urea for 90 min at room temperature. Proteins were stored at a concentration of 0.5 mg-1 mg/ml at −70° C. for further use. Immunoblot detection of proteins was performed with affinity-purified antibodies or F(ab)2 fragments of the respective antibodies after separation of proteins by urea-containing SDS-PAGE (7.5%-10%) under reducing conditions and electrophoretic protein transfer to PVDF membranes in a tank transfer cell (Mini Trans-Blot cell, Bio-Rad GmbH, Munchen, Germany). Bound antibodies were visualized with F(ab)2 fragments of enzyme-coupled secondary antibodies (Dianova GmbH, Hamburg, Germany) pre-absorbed to mouse serum proteins, or by enzyme-coupled protein A (EMD Millipore, Merck KGaA, Darmstadt, Germany) as applicable, and followed by enhanced chemiluminescent detection (ECL Plus, and/or ECL Prime, Amersham, GE Healthcare Life Sciences, Glattbrugg, Switzerland).
# TOMM6-inducing compounds were searched for and a screening system was established in HEK cells. HEK cells were cultured in the absence and presence of a test compound at a final concentration of 20 microM. Cells were harvested, proteins were extracted and TOMM6 protein levels were determined in immunoblot with TOMM6-specific antibodies. […] The following TOMM6-interacting (inducing) compounds were identified: Compound-3: N-[(3-chlorophenyl)methyl]-2-(3-piperidyl)oxazole-4-carboxamide; Compound-4: N-[(3,4-dichlorophenyl)methyl]-2-(3-piperidyl)oxazole-4-carboxamide; Compound-5: 2-[(1S)-1-amino-2-methyl-butyl]-N-[(3,4-dichlorophenyl)methyl]oxazole-4-carboxamide; Compound-6: 2-[(1S)-1-amino-2-methyl-propyl]-N-[(3,4-dichlorophenyl)methyl]oxazole-4-carboxamide; Compound-7: 6-(aminomethyl)-4-(4-chlorophenyl)-2-methyl-pyridine-3-carboxamide; Compound-8: 4-(2,4-dichlorophenyl)-6-[(1,3-dioxoisoindolin-2-yl)methyl]-2-methyl-pyridine-3-carboxamide; Compound-9: 4-(4-chlorophenyl)-6-[(1,3-dioxoisoindolin-2-yl)methyl]-2-methyl-pyridine-3-carboxamide; and Compound-10: 4-(4-chlorophenyl)-6-(hydroxymethyl)-2-methyl-pyridine-3-carboxamide).
# [5] = biological target: T2, TOMM6; assay: Tomm6 induction, test not described
# [6] = Toxic adverse effects during 3 months of treatment of Tg2576 AD mice; type: in vivo; conditions: daily dose of 10 mg/kg
# [7] = Measurement of serum level in dogs by HPLC; type: in vivo, German shepherd dogs; conditions: for peak serum concentration: t=1 h
# Experimental: (§1) Serum concentrations of alizarin were determined with serum isolated from the blood of male and female German shepherd dogs (age: 8-9 months) taken at different time points (0.5 h, 1 h, 2 h, 4 h, 6 h, 8 h, 24 h) after oral intake of the indicated doses for 4 weeks. In addition, serum concentrations of alizarin (Compound-1) were determined in male and female Sprague Dawley rats (body weight: 200-250 g) treated for 1 month and/or three months by oral gavage of alizarin at a once daily dose of 100 mg/kg, 50 mg/kg, 25 mg/kg and 12.5 mg/kg. Serum proteins were removed by acetonitrile precipitation, and alizarin was extracted by chloroform before separation on an HPLC-C18 column (Poroshell 120 EC-C18, 3.0×50 mm, Agilent) with an HPLC system (Agilent 1100 Series) and detection at OD245 nm. For quantitative determination of Compound-7 and Compound-10F in rat and dog serum, serum proteins were also removed by acetonitrile precipitation before HPLC analysis as detailed above and detection at OD254 nm.
# [8] = Measurement of serum level in rats by HPLC; type: in vivo, Sprague Dawley rats
# Experimental: as §1
# [9] = Tolerability / toxicity in dogs during four weeks of oral treatment; type: in vivo; conditions: up to an oral dose of 12.5 mg/kg/day
# [10] = Sub-chronic oral toxicity in rats; type: in vivo, Sprague Dawley rats
# Experimental: Sub-chronic toxicity studies in dogs (German Shepherd dogs) and rats (Sprague Dawley rats) were performed by the Center of Applied Analytical and Veterinary Studies, Cairo, Egypt.
# The oral toxicity of alizarin (Compound-1) in rats was determined in a sub-chronic toxicity study. Rats were treated for 3 months with a once daily oral dose of alizarin of 25 mg/kg/day, 50 mg/kg/day and 100 mg/kg/day. […] The good tolerability of alizarin in rats and dogs is supported by previous observations in humans, which document that long-term treatment for several years with alizarin and alizarin-containing plant extracts is not toxic and was previously used to prevent recurrence of calcium-containing urinary stones (Lorenz et al., Methods Find. Exp. Clin. Pharmacol. 7, 637-643, 1985). Taken together, alizarin has good oral bioavailability and a wide therapeutic window.
# Pharmacokinetic data of Compound-7 were determined as another representative TOMM6/Tomm6 inducer with a different chemical structure than alizarin (Compound-1). […] The oral bioavailability of Compound-7 in dogs was much higher than in rats because oral doses of Compound-7 required to achieve equivalent peak serum concentrations were approximately 10-fold higher in rats compared to dogs (FIG. 20B). Again, this observation is in agreement with the equivalent surface area dosage rule, according to which rats and mice usually require a 10-12-fold higher dose than dogs and humans. […] This second peak could reflect enterohepatic recirculation of Compound-7.
# [11] = rats, repeated once daily oral intake of 20 mg/kg/d
SMILES,hippocampal content of hyperphosphorylated PHF-Tau [1],hippocampal neuronal loss [2],hippocampal Tomm6 protein content [3],TOMM6 protein level in HEK cells [4],also measured
"O=C(NCc1ccc(Cl)c(Cl)c1)c1coc(C2CCCNC2)n1 (stereo not shown) [Compound-4, N-[(3,4-dichlorophenyl)methyl]-2-(3-piperidyl)oxazole-4-carboxamide]",decreased hippocampal PHF tau hyperphosphorylation,retarded overt neuronal loss,strong increase in hippocampal Tomm6 protein content,inducers of TOMM6,
C[C@@H]1CCO[C@H]2Cn3cc(C(=O)NCc4ccc(F)cc4F)c(=O)c(O)c3C(=O)N12 [dolutegravir],,,,,Tomm6 induction [5]: not a Tomm6 inducer
"O=C(NCc1cccc(Cl)c1)c1coc(C2CCCNC2)n1 (stereo not shown) [Compound-3, N-[(3-chlorophenyl)methyl]-2-(3-piperidyl)oxazole-4-carboxamide]",,,,inducers of TOMM6,
"CC(C)[C@H](N)c1nc(C(=O)NCc2ccc(Cl)c(Cl)c2)co1 [Compound-6, 2-[(1S)-1-amino-2-methyl-propyl]-N-[(3,4-dichlorophenyl)methyl]oxazole-4-carboxamide]",,,,inducers of TOMM6,
"CCC(C)[C@H](N)c1nc(C(=O)NCc2ccc(Cl)c(Cl)c2)co1 (stereo partly drawn) [Compound-5, 2-[(1S)-1-amino-2-methyl-butyl]-N-[(3,4-dichlorophenyl)methyl]oxazole-4-carboxamide]",,,,inducers of TOMM6,
"Cc1nc(CN2C(=O)c3ccccc3C2=O)cc(-c2ccc(Cl)cc2)c1C(N)=O [Compound-9, 4-(4-chlorophenyl)-6-[(1,3-dioxoisoindolin-2-yl)methyl]-2-methyl-pyridine-3-carboxamide]",,,,inducers of TOMM6,
"Cc1nc(CO)cc(-c2ccc(Cl)cc2)c1C(N)=O [Compound-10, 4-(4-chlorophenyl)-6-(hydroxymethyl)-2-methyl-pyridine-3-carboxamide]",significantly inhibited the hippocampal accumulation of hyperphosphorylated PHF tau,retarded the CUMS-induced hippocampal neuronal loss,significantly higher,inducers of TOMM6,toxic adverse effects [6]: did not show any detectable toxic adverse effects
"Cc1nc(CN)cc(-c2ccc(Cl)cc2)c1C(N)=O [Compound-7, 6-(aminomethyl)-4-(4-chlorophenyl)-2-methyl-pyridine-3-carboxamide]",decreased hippocampal PHF tau hyperphosphorylation,retarded overt neuronal loss,strong increase in hippocampal Tomm6 protein content,inducers of TOMM6,"oral bioavailability / serum concentrations after oral intake [7]: has oral bioavailability; peak serum concentration ([7]; repeated once daily oral dose of 2 mg/kg): 0.59 µg/mL; peak serum concentration ([7]; repeated once daily oral dosing of 5 mg/kg): 1.56 µg/mL; peak serum concentration ([7]; repeated once daily oral dosing of 12.5 mg/kg): 3.96 µg/mL; oral bioavailability / serum concentrations after oral intake ([8]; rats): has oral bioavailability; oral doses required to achieve equivalent peak serum concentrations, higher in rats compared to dogs ([8]; rats vs dogs): approximately 10 fold; time of peak serum concentration [8, 11]: 1 h; time of second serum peak [8, 11]: 3 h; toxic side effects [9]: did not show any detectable toxic side effects; daily food intake ([10]; rats, daily oral dose of 100 mg/kg/d): slightly decreased daily food intake; toxic side effects ([10]; rats, up to an oral dose of 50 mg/kg/day, four weeks): did not show any detectable toxic side effects; difference between therapeutic and toxic doses (therapeutic index) ([10]; therapeutic dose 10 mg/kg once daily in rodent models): approximately 10 fold"
"Cc1nc(CN2C(=O)c3ccccc3C2=O)cc(-c2ccc(Cl)cc2Cl)c1C(N)=O [Compound-8, 4-(2,4-dichlorophenyl)-6-[(1,3-dioxoisoindolin-2-yl)methyl]-2-methyl-pyridine-3-carboxamide]",,,,inducers of TOMM6,
